Biological target: T1, TGF-β Type I (RIT204D) receptor (Homo sapiens, UniProt P36897, T204D)
T1 construct: The 6×-HIS tagged cytoplasmic kinase domain of each receptor was expressed and purified from Sf9 insect cell lysates; 6xHis; made in house; host or cells: Sf9 insect cells
T1 sequence (P36897 148-503 T204D limits assumed): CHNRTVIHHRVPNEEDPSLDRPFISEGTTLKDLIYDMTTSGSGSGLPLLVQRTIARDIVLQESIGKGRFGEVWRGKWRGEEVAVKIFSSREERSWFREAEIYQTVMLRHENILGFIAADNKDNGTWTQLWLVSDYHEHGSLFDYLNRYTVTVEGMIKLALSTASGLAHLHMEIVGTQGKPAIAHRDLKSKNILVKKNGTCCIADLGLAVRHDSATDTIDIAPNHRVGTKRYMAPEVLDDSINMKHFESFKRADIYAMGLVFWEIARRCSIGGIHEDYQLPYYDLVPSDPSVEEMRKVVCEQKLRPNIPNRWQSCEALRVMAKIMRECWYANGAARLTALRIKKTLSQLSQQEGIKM
Experiment: TGF-β Receptor I (RIT204D) in vitro kinase reaction
Type: biochemical
Conditions: 6×-HIS cytoplasmic kinase domain, 4 uM ATP, 30° C., 1 hr
Method: (§1) TGF-β Receptor I and II Purification and in vitro Kinase Reactions
(§2) For TGF-β Type I (RIT204D) and Type II (RII WT) Receptors: The 6×-HIS tagged cytoplasmic kinase domain of each receptor was expressed and purified from Sf9 insect cell lysates as briefly described below:
(§3) Cell pellets after 48-72 hrs of infection were lysed in lysis buffer (LB: 50 mM Tris pH 7.5, 150 mM NaCl, 50 mM NaF, 0.5% NP40 with freshly added 20 mM, β-mercaptoethanol, 10 mM imidazole, 1 mM PMSF, 1×EDTA-free Complete Protease Inhibitor (Boehringer Mannheim).
(§4) Reactions: 170-200 nM enzyme in 1×KB, compound dilution series in 1×KB/16% DMSO (20 uM to 1 nM final concentration with 4% DMSO final concentration), reactions started by adding ATP mix (4 uM ATP/1 uCi ^33P-[…]-ATP final concentrations) in 1×KB.
(§5) Reactions were incubated at 30° C. for 1 hr RIT204D or 40 min for RII WT. Reactions were stopped and quantitated using standard TCA/BSA precipitation onto Millipore FB glass fiber filter plates and by liquid scintillation counting on a MicroBeta JET.

IC50, < 20 µM:
Cc1cccc(-c2nn3c(c2-c2cccnc2)CCC3)n1 [2-(6-methyl-pyridin-2-yl)-3-pyridin-3-yl-5,6-dihydro-4H-pyrrolo[1,2-b]pyrazole]
Cc1cccc(-c2nn3c(c2-c2ccc(F)cc2)CCC3)n1 [3-(4-Fluorophenyl)-2-(6-methylpyridin-2-yl)-5,6-dihydro-4H-pyrrolo[1,2-b]pyrazole]
COc1ccc(-c2c(-c3cccc(C)n3)nn3c2CCC3)cc1 [3-(4-Methoxyphenyl)-2-(6-methylpyridin-2-yl)-5,6-dihydro-4H-pyrrolo[1,2-b]pyrazole]
COC(=O)/C=C/c1ccc2c(-c3c(-c4cccc(C)n4)nn4c3CCC4)ccnc2c1 [3-{4-[2-(6-Methyl-pyridin-2-yl)-5,6-dihydro-4H-pyrrolo[1,2-b]pyrazol-3-yl]-quinolin-7-yl}-acrylic acid methyl ester]
CN(C)CCCN(C)C(=O)c1ccc2c(-c3c(-c4ccccn4)nn4c3CCC4)ccnc2c1 [4-(2-Pyridin-2-yl-5,6-dihydro-4H-pyrrolo[1,2-H]pyrazol-3-yl)-quinoline-7-carboxylic acid(3-dimethylamino-propyl)-methyl-amide]
CCCNC(=O)c1ccc2c(-c3c(-c4ccccn4)nn4c3CCC4)ccnc2c1 [4-(2-Pyridin-2-yl-5,6-dihydro-4H-pyrrolo[1,2-b]pyrazol-3-yl)-quinoline-7-carboxylic acid propylamide]
c1csc(-c2nn3c(c2-c2ccnc4ccccc24)CCC3)c1 [4-(2-Thiophen-2-yl-5,6-dihydro-4H-pyrrolo[1,2-b]pyrazol-3-yl)quinoline]
Clc1cccc(-c2nn3c(c2-c2ccnc4ccccc24)CCCC3)c1 [4-[2-(3-Chloro-phemyl)-4,5,6,7-tetrahydro-pyrazolo[1,5-alpyridin-3-y]-quinoline]
FC(F)(F)Oc1cccc(-c2nn3c(c2-c2ccnc4ccccc24)CCC3)c1 [4-[2-(3-Trifluoromethoxy-phenyl)-5,6-dihydro-4H-pyrrolo[1,2-b]pyrazol-3-yl]-quinoline]
c1ccc(Cc2cccc(-c3nn4c(c3-c3ccnc5ccccc35)CCC4)n2)cc1 [4-[2-(6-Benzyl-pyridin-2-yl)-5,6-dihydro-4H-pyrrolo[1,2-b]pyrazol-3-yl]-quinoline]
CS(=O)(=O)c1ccc2c(-c3c(-c4ccccn4)nn4c3CCC4)ccnc2c1 [7-Methanesulfonyl-4-(2-pyridin-2-yl-5,6-dihydro-4H-pyrrolo[1,2-b]pyrazol-3-yl)-quinoline]
CN(C)CCCOc1ccc2c(-c3c(-c4ccccn4)nn4c3CCC4)ccnc2c1 [Dimethyl-{3-[4-(2-pyridin-2-yl-5,6-dihydro-4H-pyrrolo[1,2-b]pyrazol-3-yl)-quinolin-7-yloxy]-propyl}-amine]
CN(C)CCCCOc1cc(-c2c(-c3ccccn3)nn3c2CCC3)ccn1 [Dimethyl-{4-[4-(2-pyridin-2-yl-5,6-dihydro-4H-pyrrolo[1,2-b]pyrazol-3-yl)-pyridin-2-yloxy]-butyl}-amine]
CN(C)CCCNc1cc(-c2c(-c3ccccn3)nn3c2CCC3)ccn1 [N,N-Dimethyl-N′-[4-(2-pyridin-2-yl-5,6-dihydro-4H-pyrrolo[1,2-b]pyrazol-3-yl)-pyridin-2-yl]-propane-1,3-diamine]
CN(C)CCNC(=O)COc1ccc2c(-c3c(-c4ccccn4)nn4c3CCC4)ccnc2c1 [N-(2-dimethylamino-ethyl)-2-[4-(2-pyridin-2-yl-5,6-dihydro-4H-pyrrolo[1,2-b]pyrazol-3-yl)-quinolin-7-yloxy]-acetamide]
CC(=O)NCCCOc1ccc2c(-c3c(-c4ccccn4)nn4c3CCC4)ccnc2c1 [N-{3-[4-(2-Pyridin-2-yl-5,6-dihydro-4H-pyrrolo[1,2-b]pyrazol-3-yl)-quinolin-7-yloxy]-propyl}-acetamide]

Biological target: T2, TGF-β Type II (RII WT) receptor (Homo sapiens, UniProt P37173)
T2 construct: The 6×-HIS tagged cytoplasmic kinase domain of each receptor was expressed and purified from Sf9 insect cell lysates; 6xHis; made in house; host or cells: Sf9 insect cells
T2 sequence (P37173 244-544 limits assumed): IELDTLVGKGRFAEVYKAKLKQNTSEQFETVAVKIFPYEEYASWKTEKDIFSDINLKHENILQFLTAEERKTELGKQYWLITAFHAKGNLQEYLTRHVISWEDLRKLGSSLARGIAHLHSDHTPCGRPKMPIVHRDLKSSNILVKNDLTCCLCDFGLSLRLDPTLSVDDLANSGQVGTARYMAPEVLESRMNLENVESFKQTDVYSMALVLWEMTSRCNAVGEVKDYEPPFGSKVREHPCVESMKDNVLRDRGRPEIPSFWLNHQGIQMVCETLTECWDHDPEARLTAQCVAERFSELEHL
Experiment: TGF-β Receptor II (RII WT) in vitro kinase reaction
Type: biochemical
Conditions: 6×-HIS cytoplasmic kinase domain, 4 uM ATP, 30° C., 40 min
Method: as §1, §2, §3
Cell lysates were clarified: by centrifugation and […] filtered prior to purification by Ni/NTA affinity chromatography (Qiagen).
Equilibrate with 10 CV of LB, load sample, wash with 10 CV RIPA buffer (50 mM Tris pH 7.5, 150 mM NaCl, 1% NP40, 1 mM EDTA, 0.25% sodium deoxycholate, added fresh 20 mM β-mercaptoethanol, 1 mM PMSF), wash with 10 CV LB, wash with 10 CV 1×KB (50 mM Tris pH 7.5, 150 mM NaCl, 4 mM MgCl2, 1 mM NaF, 2 mM β-mercaptoethanol), elute with a linear gradient of 1×KB containing 200 mM Imidazole.
Both enzymes were approximately 90% pure and had autophosphorylation activity.
as §4, §5

IC50, < 20 µM:
OC1CCCc2c(-c3ccnc4ccccc34)c(-c3ccccn3)nn21 (stereo not drawn) [2-Pyridin-2-yl-3-quinolin-4-yl-pyrazolo[1,5-a]piperidin-7-ol]
O=C1OCCN1c1ccc2c(-c3c(-c4ccccn4)nn4c3CCC4)ccnc2c1 [3-[4-(2-Pyridin-2-yl-5,6-dihydro-4H-pyrrolo[1,2-b]pyrazol-3-yl)-quinolin-7-yl]-oxazolidin-2-one]
Cc1cccc(-c2nn3c(c2-c2ccnc4cc(C=CC(=O)O)ccc24)CCC3)n1 [3-{4-[2-(6-Methyl-pyridin-2-yl)-5,6-dihydro-4H-pyrrolo[1,2-b]pyrazol-3-yl]-quinolin-7-yl}-acrylic acid]
Nc1ccc2c(-c3c(-c4ccccn4)nn4c3CCC4)ccnc2c1 [4-(2-Pyridin-2-yl-5,6-dihydro-4H-pyrrolo[1,2-b]pyrazol-3-yl)-quinolin-7-ylamine]
O=C(NC1CC1)c1ccc2c(-c3c(-c4ccccn4)nn4c3CCC4)ccnc2c1 [4-(2-Pyridin-2-yl-5,6-dihydro-4H-pyrrolo[1,2-b]pyrazol-3-yl)-quinoline-7-carboxylic acid cyclopropylamide]
O=C(Nc1ccccn1)c1ccc2c(-c3c(-c4ccccn4)nn4c3CCC4)ccnc2c1 [4-(2-Pyridin-2-yl-5,6-dihydro-4H-pyrrolo[1,2-b]pyrazol-3-yl)-quinoline-7-carboxylic acid pyridin-2-ylamide]
CCC(C)CNC(=O)c1ccc2c(-c3c(-c4ccccn4)nn4c3CCC4)ccnc2c1 (stereo not drawn) [4-(2-Pyridin-2-yl-5,6-dihydro-4H-pyrrolo[1,2-b]pyrazol-3-yl)-quinoline-7-carboxylic acid(2-methyl-butyl)-amide]
FC(F)(F)c1cccc(-c2nn3c(c2-c2ccnc4ccccc24)CCC3)c1 [4-[2-(3-Trifluoromethylphenyl)-5,6-dihydro-4H-pyrrolo[1,2-b]pyrazol-3-yl]-quinoline]
Cc1cccc(-c2nn3c(c2-c2ccnc4ccc(-c5ccccc5)cc24)CCC3)n1 [4-[2-(6-Methyl-pyridin-2-yl)-5,6-dihydro-4H-pyrrolo[1,2-b]pyrazol-3-yl]-6-phenyl-quinoline]
COc1cccc(C2Cc3c(-c4ccnc5ccccc45)c(-c4ccccn4)nn3C2)c1 (stereo not drawn) [4-[5-(3-Methoxy-phenyl)-2-pyridin-2-yl-5,6-dihydro-4H-pyrrolo[1,2-b]pyrazol-3-yl]-quinoline]
ClCCCOc1ccc2c(-c3c(-c4ccccn4)nn4c3CCC4)ccnc2c1 [7-(3-Chloro-propoxy)-4-(2-pyridin-2-yl-5,6-dihydro-4H-pyrrolo[1,2-b]pyrazol-3-yl)-quinoline]
CC(C)c1cc(-c2c(-c3ccccn3)nn3c2CCC3)c2ccc(Br)cc2n1 [7-Bromo-2-isopropyl-4-(2-pyridin-2-yl-5,6-dihydro-4H-pyrrolo[1,2-b]pyrazol-3-yl)-quinoline]
CN(C)CCOc1ccc2c(-c3c(-c4ccccn4)nn4c3CCC4)ccnc2c1 [Dimethyl-{2-[4-(2-pyridin-2-yl-5,6-dihydro-4H-pyrrolo[1,2-b]pyrazol-3-yl)-quinolin-7-yloxy]-ethyl}-amine]
CN(C)CCCOc1ccc2c(-c3c(-c4ccccn4)nn4c3CCC4)ccnc2c1 [Dimethyl-{3-[4-(2-pyridin-2-yl-5,6-dihydro-4H-pyrrolo[1,2-b]pyrazol-3-yl)-quinolin-7-yloxy]-propyl}-amine]
CCN(C)CCCOc1ccc2c(-c3c(-c4ccccn4)nn4c3CCC4)ccnc2c1 [Ethyl-methyl-{3-[4-(2-pyridin-2-yl-5,6-dihydro-4H-pyrrolo[1,2-b]pyrazol-3-yl)-quinolin-7-yloxy]-propyl}-amine]
CN(C)CCNC(=O)COc1ccc2c(-c3c(-c4ccccn4)nn4c3CCC4)ccnc2c1 [N-(2-dimethylamino-ethyl)-2-[4-(2-pyridin-2-yl-5,6-dihydro-4H-pyrrolo[1,2-b]pyrazol-3-yl)-quinolin-7-yloxy]-acetamide]
Cc1cccc(-c2nn3c(c2-c2ccnc4cc(Br)ccc24)CCC3CO)n1 (stereo not drawn) [[3-(7-Bromo-quinolin-4-yl)-2-(6-methyl-pyridin-2-yl)-5,6-dihydro-4H-pyrrolo[1,2-b]pyrazol-6-yl]3-methanol]
